Some test systems named below: SF-295 CNS; 786-0 renal; MDA-MB-435; OVCAR-8 ovarian; NCI-H522 lung; MOLT-4 leukemia; SR leukemia; UACC-257 melanoma; SNB-75 CNS; COLO 205 colon.
Experiment in all cases: NCI-60 cell line screen, 48 h

“And” between values parts separate entries of the source, which are not always exact repeats. Identical values can stand only once.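 Where inhibition never reached the appropriate level, the endpoint shown equals the highest concentration tested. Otherwise, values were interpolated linearly from a five-concentration, 48-hour dose response in 96-well plates. GI50 = concentration required for 50% inhibition of growth. At the TGI there is no net growth.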

As to `COc1ncnc2c1ncn2C/C(Br)=C(\Br)CCl`, the GI50 in the test with SF-295 CNS is 10.6 µM; in the test on 786-0 renal, 3.38 µM; with MDA-MB-435, 2.94 µM; with OVCAR-8 ovarian, 3.01 µM; in the test with NCI-H522 lung, 0.875 µM; in the test with MOLT-4 leukemia it was 2.91 µM. Besides, the GI50 was 2.73 µM in the test on SR leukemia, 0.775 µM with UACC-257 melanoma, 2.01 µM in the test with SNB-75 CNS and 1.73 µM in the test with COLO 205 colon. The TGI in the test on SF-295 CNS was 23.3 µM; with 786-0 renal, 11.5 µM; in the test with MDA-MB-435, 11.5 µM; with OVCAR-8 ovarian, 7.84 µM; with NCI-H522 lung, 2.25 µM; in the test with MOLT-4 leukemia, 25.4 µM. The TGI in the test on SR leukemia was 12.2 µM; in the test on UACC-257 melanoma it was 3.9 µM; in the test on SNB-75 CNS, 8.57 µM; in the test with COLO 205 colon it was 3.18 µM.
Consider `COc1cc2c(cc1OCCN1C(=O)c3cccc4cccc(c34)C1=O)N=C[C@@H]1CCCN1C2=O`, for which the GI50 was 32 µM with SF-295 CNS; 16.5 µM in the test with 786-0 renal; 16 µM in the test on MDA-MB-435; 16.6 µM with OVCAR-8 ovarian; 1.58 µM in the test on NCI-H522 lung; 42.2 µM with MOLT-4 leukemia. The GI50 was 18 µM in the test on UACC-257 melanoma and 14.9 µM in the test with COLO 205 colon. Moreover, the TGI is 50 µM and > 100 µM in the test on SF-295 CNS; 14.7 µM and 33.9 µM in the test with 786-0 renal; 25 µM and 35.9 µM in the test with MDA-MB-435; 17.1 µM and 36.7 µM in the test on OVCAR-8 ovarian; 4.51 µM and 10.2 µM with NCI-H522 lung; 11 µM and > 100 µM in the test on MOLT-4 leukemia. Moreover, the TGI with SR leukemia was above 100 µM; in the test with UACC-257 melanoma, 19 µM and 35.8 µM; with SNB-75 CNS it was 45 µM; with COLO 205 colon, 15.1 µM and 30.6 µM.
For `Cc1ccc2nc(NC(=O)CSC(=S)N3CCN(Cc4ccccc4)CC3)sc2c1`, the GI50 in the test on SF-295 CNS, with 786-0 renal, with MDA-MB-435, in the test on OVCAR-8 ovarian, in the test on NCI-H522 lung and with MOLT-4 leukemia was above 100 µM in each case. The GI50 with SR leukemia, with UACC-257 melanoma, in the test on SNB-75 CNS and in the test on COLO 205 colon was above 100 µM each time. Further, the TGI in the test with SF-295 CNS, with 786-0 renal, in the test with MDA-MB-435, with OVCAR-8 ovarian, with NCI-H522 lung and in the test on MOLT-4 leukemia was above 100 µM throughout. Also, the TGI in the test on SR leukemia, with UACC-257 melanoma, in the test on SNB-75 CNS and in the test with COLO 205 colon was above 100 µM throughout.
`CN(C)c1ccc2c(SCC(=O)OCC(=O)[C@@]3(O)CC[C@H]4[C@@H]5CCC6=CC(=O)C=C[C@]6(C)[C@H]5C(=O)C[C@@]43C)c3ccc(N(C)C)cc3nc2c1`: the TGI with SF-295 CNS was above 100 µM; with 786-0 renal it was above 47.4 µM; in the test on MDA-MB-435 it was above 72.1 µM; in the test on OVCAR-8 ovarian it was 37 µM; with NCI-H522 lung, above 100 µM; with MOLT-4 leukemia it was above 100 µM. The TGI with SR leukemia was 4 µM; in the test on UACC-257 melanoma, above 77.5 µM; with SNB-75 CNS, above 89.7 µM; in the test with COLO 205 colon, above 100 µM.
As for `Cc1cc(C)c(S(=O)(=O)Oc2ccccc2[N+](=O)[O-])c(C)c1`, the GI50 with SF-295 CNS was 1.67 µM; with 786-0 renal it was 5.58 µM; in the test with MDA-MB-435, 0.239 µM; with OVCAR-8 ovarian it was 4.28 µM; with NCI-H522 lung, 1.26 µM; in the test with MOLT-4 leukemia, 1.39 µM. In addition, the GI50 with SR leukemia is 0.443 µM; in the test on UACC-257 melanoma, 4.22 µM; in the test on SNB-75 CNS it was 1.82 µM; in the test on COLO 205 colon, 2.9 µM. Besides, the TGI is above 24.3 µM in the test on SF-295 CNS; above 100 µM with 786-0 renal; 0.879 µM in the test with MDA-MB-435; above 100 µM with OVCAR-8 ovarian; 6.56 µM in the test on NCI-H522 lung; above 100 µM in the test with MOLT-4 leukemia. Further, the TGI with SR leukemia was above 100 µM; in the test with UACC-257 melanoma it was above 100 µM; in the test with SNB-75 CNS, 7.04 µM; in the test with COLO 205 colon it was 12.9 µM.
For `CN([N-]C(=O)CC(=O)[N-]N(C)C(=S)c1ccccc1)C(=S)c1ccccc1.[Cu+2]`, the GI50 in the test on SF-295 CNS is 0.0635 µM; with 786-0 renal, 0.0503 µM; in the test with MDA-MB-435 it was 0.0437 µM; in the test on OVCAR-8 ovarian it was 0.0598 µM; in the test on NCI-H522 lung, below 0.013 µM; in the test on MOLT-4 leukemia it was below 0.0108 µM. In addition, the GI50 was below 0.01 µM in the test with SR leukemia, below 0.01 µM in the test with UACC-257 melanoma, 0.0298 µM with SNB-75 CNS and below 0.01 µM in the test with COLO 205 colon. The TGI in the test with SF-295 CNS is 0.225 µM; with 786-0 renal, 0.116 µM; in the test with MDA-MB-435 it was 0.171 µM; in the test with OVCAR-8 ovarian, 0.232 µM; with NCI-H522 lung it was 0.0281 µM; in the test with MOLT-4 leukemia, 0.22 µM. The values for the TGI in the test with UACC-257 melanoma, with SNB-75 CNS and in the test with COLO 205 colon were 0.063 µM, 0.116 µM and 0.0256 µM, respectively.
Regarding `CCCCCCCCCCCCCCCC[N+](C)(C)C`, the GI50 was 0.305 µM and 0.716 µM in the test with SF-295 CNS; 0.966 µM in the test on 786-0 renal; 0.241 µM in the test with MDA-MB-435; 0.212 µM with OVCAR-8 ovarian; 0.139 µM in the test on NCI-H522 lung; 0.157 µM and 1.17 µM in the test on MOLT-4 leukemia. In addition, the GI50 in the test on SR leukemia is 0.166 µM; in the test on UACC-257 melanoma, 0.266 µM and 2.46 µM; in the test on SNB-75 CNS it was 0.142 µM and 1.36 µM; with COLO 205 colon, 0.16 µM and 1.19 µM. Moreover, the TGI in the test on SF-295 CNS was 1.36 µM and 2.38 µM; with 786-0 renal, 2.43 µM; in the test with MDA-MB-435, 0.761 µM; in the test with OVCAR-8 ovarian it was 0.536 µM; in the test on NCI-H522 lung it was 0.329 µM; in the test on MOLT-4 leukemia, 0.346 µM and 2.8 µM. Also, the TGI with SR leukemia was 0.551 µM; with UACC-257 melanoma, 0.942 µM and 6.33 µM; in the test with SNB-75 CNS, 0.396 µM and 3.72 µM; with COLO 205 colon, 0.295 µM and 2.75 µM.
Regarding `CN1CCN(c2ccc(NC3=C(Cl)C(=O)c4ncccc4C3=O)cc2C(F)(F)F)CC1`, the GI50 in the test on SF-295 CNS is 16.6 µM; in the test with 786-0 renal, 1.84 µM; in the test on MDA-MB-435, 1.79 µM; in the test on OVCAR-8 ovarian, 3.14 µM; in the test with NCI-H522 lung, 1.63 µM; in the test on MOLT-4 leukemia it was 0.304 µM. The GI50 was 0.355 µM with SR leukemia, 1.62 µM in the test on UACC-257 melanoma, 5.44 µM with SNB-75 CNS and 1.89 µM in the test with COLO 205 colon. The TGI was 30.4 µM in the test on SF-295 CNS; 3.32 µM in the test with 786-0 renal; 3.3 µM in the test with MDA-MB-435; 12.4 µM in the test with OVCAR-8 ovarian; 3.39 µM in the test on NCI-H522 lung; 2.67 µM in the test with MOLT-4 leukemia. Also, the TGI in the test on SR leukemia worked out at 3.66 µM; in the test on UACC-257 melanoma, 3.09 µM; in the test on SNB-75 CNS it was 19.8 µM; in the test with COLO 205 colon, 4.63 µM.

The record behind these values is PubChem BioAssay (NCI).
